Earlier results, collected in patent publication US11220528B2, “Compositions and methods for treating pulmonary hypertension” (Marshall University Research Corporation, priority 2017, dated 2022).

Settings: background statement

## CCCCC[C@H](O)/C=C/[C@@H]1[C@H]2C/C(=C/CCCC(=O)O)O[C@H]2C[C@H]1O [Epoprostenol]
  half-life: 3 to 5 min
